For the series, the target named is MALAT1. Particulars: ASO, A431, 0.005 µM.

Where “and” joins values, the source holds several entries; their conditions need not be identical. Equal values may be shown once. After the bases stand the sugars from the 5' end (letter, count) and the backbone: PS all phosphorothioate, else s phosphorothioate and o phosphodiester by linkage. Methylation of C is not given here. k = constrained ethyl (cEt); d = 2'-deoxy (DNA)

For 99 sequences, target mRNA inhibition results are on record in the OligoGym collection.

On to GTAACAGGCCACTGCC (sugars k3 d10 k3, PS), for which the target mRNA inhibition worked out at 14%.
As for CCACGAACTGCTGCTT (sugars k3 d10 k3, PS), the figure is 54%; as for GACAAGGCAGTTATAT (sugars k3 d10 k3, PS), 1%.
The value for GCCTGGTTAGGTATGA (sugars k3 d10 k3, PS) was 21%.
Turning to CAAATCCTGATCTGGT (sugars k3 d10 k3, PS), the target mRNA inhibition was 24% and 21%.
The value for CGTGTGGTTGCCAAGC (sugars k3 d10 k3, PS) was 45%; that for AGCGAATGGCTTTGTC (sugars k3 d10 k3, PS) was 5%.
The value for CAATTTAGAGCTTCTC (sugars k3 d10 k3, PS) was -12%; that for CACCTTCCGCCGCCTC (sugars k3 d10 k3, PS) was 28%; that for CCATCATACTGCCAGG (sugars k3 d10 k3, PS) was 17%.
As for CTATTGGTATTAATTC (sugars k3 d10 k3, PS), the target mRNA inhibition turned out to be 7%.
As for TAGGATCCTCTACGCA (sugars k3 d10 k3, PS), the figure is 23%; as for AGTTTTCAGCAGTAGG (sugars k3 d10 k3, PS), -21%.
The value for CACCACGAACTGCTGC (sugars k3 d10 k3, PS) was 19%.
The value for TTCCGCTAAGATGCTA (sugars k3 d10 k3, PS) was 9%; that for CAGGCGAGCTGAGGCT (sugars k3 d10 k3, PS) was 7%; that for ATGGACATTGCCTCTT (sugars k3 d10 k3, PS) was 37%.
For the sequence AAGTAAGCCCCACCCC (sugars k3 d10 k3, PS), the target mRNA inhibition came to 37%.
Consider TAGCTTGACAAGCAAT (sugars k3 d10 k3, PS), for which the target mRNA inhibition was 12%.
For ACTAGTGGTTCCCAAT (sugars k3 d10 k3, PS), the target mRNA inhibition was 33%.
Turning to CTGTTTAAGTCACCTT (sugars k3 d10 k3, PS), the target mRNA inhibition was 76% and 61%.
As for ATTCAATACTATTGTC (sugars k3 d10 k3, PS), the figure is 24%; as for TTTTTGTTCGAGAAAT (sugars k3 d10 k3, PS), -7%.
The value for CTTAAAGCACTTCTTG (sugars k3 d10 k3, PS) was -34%.
As for AGACCCCTGACTTTCT (sugars k3 d10 k3, PS), the figure is 22%; as for ATCTGATTCTAACAGC (sugars k3 d10 k3, PS), 40%.
As to CACCGGAATTCGATCA (sugars k3 d10 k3, PS), the target mRNA inhibition was found to be 20%.
The value for TTGCTTACACACAACT (sugars k3 d10 k3, PS) was 18%; that for AGTTACTCCAGCATAA (sugars k3 d10 k3, PS) was 31%; that for AGGCGAGCTGAGGCTT (sugars k3 d10 k3, PS) was 19%.
Turning to ACAAGGATCCAAGCTA (sugars k3 d10 k3, PS), the target mRNA inhibition was -7%.
The value for AAGATATTGTGCTGTT (sugars k3 d10 k3, PS) was 13%; that for TAGCAGCGGGATCAGA (sugars k3 d10 k3, PS) was 32%; that for AATAGCAGCGGGATCA (sugars k3 d10 k3, PS) was 34%.
The value for CTTATCTGCGGTTTCC (sugars k3 d10 k3, PS) was 62% and 53%.
Turning to ATAATCTCCCACCTGT (sugars k3 d10 k3, PS), the target mRNA inhibition stood at 17%.
The value for ACACACTACCATATCC (sugars k3 d10 k3, PS) was -3%; that for GTAGTAAGAATCTCAG (sugars k3 d10 k3, PS) was 80% and 71%; that for CTTGTCTTAGCTTGTT (sugars k3 d10 k3, PS) was 71% and 61%.
As for TGAGTGTTCCTGCATG (sugars k3 d10 k3, PS), the figure is 36%.
As for TACACCCAGTGGCTCA (sugars k3 d10 k3, PS), the figure is 30%; as for AACCTGGGCTCCCGGA (sugars k3 d10 k3, PS), 30%; as for AGCAGTAACATCTGAT (sugars k3 d10 k3, PS), 41%.
Take GCTCACAAGGCAAATC (sugars k3 d10 k3, PS): the target mRNA inhibition is -4%.
As for CTAAATCATTGGGAGT (sugars k3 d10 k3, PS), the figure is 48%; as for CACAACAATTTAGAGC (sugars k3 d10 k3, PS), -17%.
As for TGCGCTGGCTGCCTCA (sugars k3 d10 k3, PS), the figure is 25%; as for GTTACCAATAATTTCC (sugars k3 d10 k3, PS), 71% and 50%; as for TGATCCCAACTCATCT (sugars k3 d10 k3, PS), 14%.
Take TTATGGAACTTGAATG (sugars k3 d10 k3, PS): the target mRNA inhibition came out at 7%.
The value for TAAATTGGTTCTGGTC (sugars k3 d10 k3, PS) was 49%; that for ATCTTCACCACGAACT (sugars k3 d10 k3, PS) was 22%.
On to TATCCTGATATTGGAT (sugars k3 d10 k3, PS), for which the target mRNA inhibition worked out at 24%.
Regarding CCAGGATTAATGTAGT (sugars k3 d10 k3, PS), the target mRNA inhibition is 71% and 55%.
As for GATATTTAAGAACTCC (sugars k3 d10 k3, PS), the figure is 38%; as for TAACTAGGCTTTAAAT (sugars k3 d10 k3, PS), 14%.
The value for TAGTACTATAGCATCT (sugars k3 d10 k3, PS) was 49%; that for GGAAAGCGAGTTCAAG (sugars k3 d10 k3, PS) was 24%.
The value for CCACTTACTGGTTTAA (sugars k3 d10 k3, PS) was 33%.
Turning to ATCATATTTTAAACGG (sugars k3 d10 k3, PS), the target mRNA inhibition was 32%.
As for TCGGTTAAAAATAGGT (sugars k3 d10 k3, PS), the figure is 16%.
Take GAAATCCCCTAGGGAA (sugars k3 d10 k3, PS): the target mRNA inhibition was 6%.
The value for CTGATAAACTCACTGC (sugars k3 d10 k3, PS) was 48%.
On to TGAAGTGTACTATCCC (sugars k3 d10 k3, PS), for which the target mRNA inhibition was 72% and 88%.
As for CCATGGTTGTCCTACT (sugars k3 d10 k3, PS), the figure is 10%.
The value for TATTTAGAGGGCCTCT (sugars k3 d10 k3, PS) was 34%.
The value for GGCCAGCCTATAAGGA (sugars k3 d10 k3, PS) was 6%; that for AGACCTCGACACCATC (sugars k3 d10 k3, PS) was 46%; that for GACACTTTCCTTGCCC (sugars k3 d10 k3, PS) was 48%.
As for CGCACTGGCTCCTGGA (sugars k3 d10 k3, PS), the target mRNA inhibition is 49%.
The value for CAGGTCATCTATTCAC (sugars k3 d10 k3, PS) was 51% and 72%.
The value for CCAAGACAGCCACACG (sugars k3 d10 k3, PS) was 10%.
As for GTACACCCAGTGGCTC (sugars k3 d10 k3, PS), the figure is 6%; as for GTTGAGAAGTGGCAAA (sugars k3 d10 k3, PS), 20%; as for ATCATAATCTCCCACC (sugars k3 d10 k3, PS), 20%.
Take GGAATGGCCAGCCTAT (sugars k3 d10 k3, PS): the target mRNA inhibition amounted to 17%.
ACCCAGAAGTGTTTAC (sugars k3 d10 k3, PS): the target mRNA inhibition is 16%.
Consider CCGTTGGCTGCCAGTG (sugars k3 d10 k3, PS), for which the target mRNA inhibition was found to be 6%.
Consider TGCCTTTAGGATTCTA (sugars k3 d10 k3, PS), for which the target mRNA inhibition was 45%.
As for TAAATAAGGAGACAGC (sugars k3 d10 k3, PS), the figure is 38%; as for ACTGAAAACTCCCCCC (sugars k3 d10 k3, PS), -3%; as for GCCCGCACGGAAATTT (sugars k3 d10 k3, PS), 23%.
As for GGATCCTCTACGCACA (sugars k3 d10 k3, PS), the figure is 19%; as for ATTTTAAGGTTGCATC (sugars k3 d10 k3, PS), 37%.
The value for TTTAGAGGGCCTCTAT (sugars k3 d10 k3, PS) was 17%.
CTAACATAGTTCAACC (sugars k3 d10 k3, PS): the target mRNA inhibition is 16%.
As for AATTCACCAAGGAGCT (sugars k3 d10 k3, PS), the figure is 35%.
The value for TGAATTACTTCCGTTA (sugars k3 d10 k3, PS) was 36%; that for GTCAATTAATGCTAGT (sugars k3 d10 k3, PS) was 41%; that for AAGATAGCAGCACAAC (sugars k3 d10 k3, PS) was 12%.
As for CTGGTACACCCAGTGG (sugars k3 d10 k3, PS), the figure is 4%; as for CTGCAGAGTTTGAGTG (sugars k3 d10 k3, PS), -19%; as for CTACTCCAAGCATTGG (sugars k3 d10 k3, PS), 27%.
TTTGAGTATGCTGATA (sugars k3 d10 k3, PS): the target mRNA inhibition is 47%.
For GAAGAAGCTTCATCTC (sugars k3 d10 k3, PS), the target mRNA inhibition was 15%.
Take AGCTTATGGAACTTGA (sugars k3 d10 k3, PS): the target mRNA inhibition was determined as 16%.
For GTGTTTACACTGCTCT (sugars k3 d10 k3, PS), the target mRNA inhibition was determined as 6%.
Take CAATATCTTAGTAACC (sugars k3 d10 k3, PS): the target mRNA inhibition was 29%.
For TGCAAGGTCTCATACA (sugars k3 d10 k3, PS), the target mRNA inhibition was found to be 32%.
